Assay results from ChEMBL document CHEMBL4680251, “Discovery of a 2-pyridinyl urea-containing compound YD57 as a potent inhibitor of apoptosis signal-regulating kinase 1 (ASK1)” (Eur J Med Chem, 2020).

Key:
HepG2 [1] = experiment: Induction of cell cycle arrest in human HepG2 cells assessed as accumulation at G2/M phase at 16 uM incubated for 24 hrs by propidium iodide staining based flow cytometry (reference value: 33.49%); format: functional
[2] = molecular target: T1, Mitogen-activated protein kinase kinase kinase 6 (Homo sapiens, UniProt O95382); experiment: Inhibition of ASK2 (unknown origin)
T1 sequence (O95382 whole entry): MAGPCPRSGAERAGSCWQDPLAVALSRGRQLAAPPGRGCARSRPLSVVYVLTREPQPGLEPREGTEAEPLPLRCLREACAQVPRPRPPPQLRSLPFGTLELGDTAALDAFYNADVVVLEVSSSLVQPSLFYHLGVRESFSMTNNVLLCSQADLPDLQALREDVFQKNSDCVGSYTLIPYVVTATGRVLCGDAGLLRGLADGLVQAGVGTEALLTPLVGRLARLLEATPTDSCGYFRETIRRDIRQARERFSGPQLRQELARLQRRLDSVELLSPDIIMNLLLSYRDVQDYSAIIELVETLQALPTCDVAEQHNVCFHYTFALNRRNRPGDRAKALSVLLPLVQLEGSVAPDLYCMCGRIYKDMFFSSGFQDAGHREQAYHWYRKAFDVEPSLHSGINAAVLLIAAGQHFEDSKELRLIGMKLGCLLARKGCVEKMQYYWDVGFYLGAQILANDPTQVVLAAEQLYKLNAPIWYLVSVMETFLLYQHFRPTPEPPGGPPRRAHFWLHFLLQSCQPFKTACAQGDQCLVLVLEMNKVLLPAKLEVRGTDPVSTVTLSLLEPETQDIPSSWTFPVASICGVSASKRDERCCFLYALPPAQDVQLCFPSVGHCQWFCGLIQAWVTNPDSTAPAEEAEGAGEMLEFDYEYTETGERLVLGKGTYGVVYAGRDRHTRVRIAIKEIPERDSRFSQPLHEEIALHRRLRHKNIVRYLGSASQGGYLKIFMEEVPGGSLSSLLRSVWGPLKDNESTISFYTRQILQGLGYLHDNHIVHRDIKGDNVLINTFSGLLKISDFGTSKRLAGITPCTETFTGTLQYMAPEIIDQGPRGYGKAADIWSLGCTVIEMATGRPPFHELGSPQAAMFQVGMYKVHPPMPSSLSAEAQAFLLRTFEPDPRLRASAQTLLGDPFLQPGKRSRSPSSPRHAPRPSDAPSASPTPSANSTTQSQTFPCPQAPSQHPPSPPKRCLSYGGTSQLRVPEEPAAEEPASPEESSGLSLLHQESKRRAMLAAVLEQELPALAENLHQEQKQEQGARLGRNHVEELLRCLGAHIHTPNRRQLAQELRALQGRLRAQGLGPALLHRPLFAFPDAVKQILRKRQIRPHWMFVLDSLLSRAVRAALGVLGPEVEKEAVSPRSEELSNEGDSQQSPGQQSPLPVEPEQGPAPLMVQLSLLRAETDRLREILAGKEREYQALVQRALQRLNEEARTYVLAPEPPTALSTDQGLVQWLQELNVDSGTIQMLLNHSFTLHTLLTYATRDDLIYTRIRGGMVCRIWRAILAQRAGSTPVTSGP

HepG2 [3] = experiment: Induction of cell cycle arrest in human HepG2 cells assessed as accumulation at G2/M phase at 4 uM incubated for 24 hrs by propidium iodide staining based flow cytometry (reference value: 33.49%); format: functional
[4] = molecular target: Glycogen synthase kinase-3 beta (Homo sapiens, UniProt P49841); experiment: Inhibition of human recombinant GSK3 beta H350L mutant using YRRAAVPPSPSLSR as substrate incubated for 40 mins in presence of [gamma-33ATP] by radiometric scintillation counting analysis
HepG2 [5] = experiment: Induction of cell cycle arrest in human HepG2 cells assessed as accumulation at S phase at 8 uM incubated for 24 hrs by propidium iodide staining based flow cytometry (reference value: 33.27%); format: functional
[6] = molecular target: Non-receptor tyrosine-protein kinase TYK2 (Homo sapiens, UniProt P29597); experiment: Inhibition of human recombinant TYK2 (875 to end residues) using GGMEDIYFEFMGG as substrate incubated for 40 mins in presence of [gamma-33ATP] by radiometric scintillation counting analysis
HepG2 [7] = experiment: Induction of cell cycle arrest in human HepG2 cells assessed as accumulation at G0/G1 phase at 8 uM incubated for 24 hrs by propidium iodide staining based flow cytometry (reference value: 38.34%); format: functional
HepG2 [8] = experiment: Induction of cell cycle arrest in human HepG2 cells assessed as accumulation at G2/M phase at 8 uM incubated for 24 hrs by propidium iodide staining based flow cytometry (reference value: 33.49%); format: functional

Glycogen synthase kinase-3 beta, sequence (P49841 whole entry): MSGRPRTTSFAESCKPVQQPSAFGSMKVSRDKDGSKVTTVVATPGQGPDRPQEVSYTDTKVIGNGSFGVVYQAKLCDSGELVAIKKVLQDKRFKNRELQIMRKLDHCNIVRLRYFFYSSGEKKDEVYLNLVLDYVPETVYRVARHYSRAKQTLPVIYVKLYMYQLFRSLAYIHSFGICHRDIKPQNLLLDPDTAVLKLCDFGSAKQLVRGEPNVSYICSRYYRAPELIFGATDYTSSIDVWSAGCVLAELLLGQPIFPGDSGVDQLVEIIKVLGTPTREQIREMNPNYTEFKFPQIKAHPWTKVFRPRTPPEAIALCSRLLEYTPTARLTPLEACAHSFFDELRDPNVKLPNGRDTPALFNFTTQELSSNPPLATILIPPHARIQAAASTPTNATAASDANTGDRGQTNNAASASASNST
Non-receptor tyrosine-protein kinase TYK2, sequence (P29597 whole entry): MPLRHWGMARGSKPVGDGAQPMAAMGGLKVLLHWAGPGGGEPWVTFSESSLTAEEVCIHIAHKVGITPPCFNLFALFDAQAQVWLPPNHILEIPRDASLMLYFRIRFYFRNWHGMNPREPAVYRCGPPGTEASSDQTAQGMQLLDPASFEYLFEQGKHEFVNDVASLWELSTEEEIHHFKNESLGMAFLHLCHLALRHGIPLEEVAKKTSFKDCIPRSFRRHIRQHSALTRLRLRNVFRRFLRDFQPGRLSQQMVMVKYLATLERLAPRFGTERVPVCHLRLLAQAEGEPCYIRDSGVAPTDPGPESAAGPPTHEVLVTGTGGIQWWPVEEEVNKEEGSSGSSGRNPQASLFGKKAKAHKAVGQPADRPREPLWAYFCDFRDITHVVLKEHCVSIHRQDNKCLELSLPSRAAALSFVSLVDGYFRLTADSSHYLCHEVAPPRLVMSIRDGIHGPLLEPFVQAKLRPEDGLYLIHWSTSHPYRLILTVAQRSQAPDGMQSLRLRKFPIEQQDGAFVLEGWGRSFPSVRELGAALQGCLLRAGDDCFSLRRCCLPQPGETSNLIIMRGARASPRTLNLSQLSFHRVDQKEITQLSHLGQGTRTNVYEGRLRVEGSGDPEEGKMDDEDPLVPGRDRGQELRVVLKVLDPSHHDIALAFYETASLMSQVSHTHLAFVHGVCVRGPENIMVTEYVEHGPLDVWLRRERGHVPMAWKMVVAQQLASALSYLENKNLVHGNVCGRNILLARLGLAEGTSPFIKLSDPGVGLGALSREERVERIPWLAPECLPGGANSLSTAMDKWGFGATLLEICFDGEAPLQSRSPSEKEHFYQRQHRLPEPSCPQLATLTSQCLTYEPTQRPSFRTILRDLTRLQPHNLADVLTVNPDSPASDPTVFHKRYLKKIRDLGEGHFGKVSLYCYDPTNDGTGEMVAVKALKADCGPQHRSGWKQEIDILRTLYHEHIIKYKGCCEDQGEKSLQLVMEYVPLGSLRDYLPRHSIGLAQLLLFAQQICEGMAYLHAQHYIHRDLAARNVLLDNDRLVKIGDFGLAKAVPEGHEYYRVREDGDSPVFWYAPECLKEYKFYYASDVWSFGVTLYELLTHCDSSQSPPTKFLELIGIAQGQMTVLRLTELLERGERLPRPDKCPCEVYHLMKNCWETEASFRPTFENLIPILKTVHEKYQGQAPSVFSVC

C[C@H](CO)n1cnnc1-c1cccc(NC(=O)Nc2cc3ccccn3n2)n1
Activity (HepG2 [1]): 32.64%
IC50 [2]: 5.29 µM
Activity (HepG2 [3]): 34.25%
IC50 [4]: 0.283 µM
Activity (HepG2 [5]): 8.95%
IC50 [6]: 1.69 µM
Activity (HepG2 [7]): 66.65%
Activity (HepG2 [8]): 35.02%
